# Patent US20120122991A1, “METHOD FOR TREATING CANCER BY INCREASING AMP-ACTIVATED KINASE ACTIVITY” (Dana-Farber Cancer Institute, Inc., priority 2003, published 2012)
# System: mTOR signaling
# Test: Immunoblot and cap-complex analysis of mTOR signaling (S6K1, S6, 4E-BP1, GSK-3) in MEFs
# Assay type: cell-based, mouse
# Procedure: FIG. 6A: Subconfluent cycling littermate-matched primary MEFs of the indicated genotype were left untreated (NT) or were treated with 2 mM AICAR for 2 h. Total cell extracts were immunoblotted for phospho-Thr172 AMPK (P-AMPK), phospho Ser79 ACC (P-ACC), phospho-Thr389 S6K1 (P-S6K1), phospho-Ser9 GSK-3b (P-GSK-3), and phospho-Ser235/236 S6 ribosomal protein (P-S6). FIG. 6B: An immortalized LKB1−/− MEF cell line was reconstituted with vector (v), wild-type (wt) or kinase-dead (kd) human LKB1-expressing retroviruses. Cells were treated as in FIG. 6A. eIF4E was used as a loading control. *represents a cross-reactive band with the anti-LKB1 antisera as characterized previously (Shaw et al. (2004) Proc. Natl. Acad. Sci. USA 101, 3329-3335). FIG. 6C: Endogenous 5′ cap complexes were isolated from LKB1 primary MEFs as in A. 10% of the total cell lysate is shown in the left panels; cap complexes purified on 7-methyl sepharose are shown in right panels. Each were immunoblotted with total 4E-BP1 and eIF4E antibodies. eIF4E is shown as a loading control. FIG. 6D: Hela cells (which are LKB1-deficient) were transiently transfected with vector, FLAG-tagged wild-type, or kinase-dead LKB1 along with an HA-tagged S6K1 or an HA-tagged 4E-BP1 construct, then treated where indicated with 2 mM AICAR for 2 h. S6K1-immunoprecipitates were immunoblotted for activating phosphorylation of S6K1 as before, as well with anti-HA to control for levels. Lysates were immunoblotted with anti-FLAG to detect levels of LKB1 and with anti-HA to detect phosphorylation induced changes in 4E-BP1 mobility on SDS-PAGE.
# FIGS. 8A and 8B: Littermate matched LKB1- or TSC2-deficient MEFs were compared to wild-type MEFs in their response to a number of stress stimuli known to inhibit mTOR signaling (wild-type cells denoted +, −/− cells simply−). mTOR signaling was examined by immunoblotting for phospho-S6 as in FIG. 6. Activation of Akt and Erk were examined using their specific activation state phospho-specific antibodies (Ser473 for Akt, Thr202/Tyr204 for Erk). As before, eIF4E is used as a loading control. All MEFs were serum-deprived in DMEM alone for 24 h. Indicated samples were then placed in fresh media containing 10% serum, with or without […] rapamycin or 2 mM AICAR, all for 90 min. Amino acid deprivation (-AA) was performed by placing the serum-starved cells into D-PBS with 10% dialyzed serum for 90 min. […] Cells were placed in normal media, glucose free media with 10% dialyzed serum, or glucose-free media with 10% dialyzed serum containing 20 nM rapamycin for 6 or 24 h as indicated. LKB1 genotype indicated at bottom. eIF4E is used as a loading control. FIG. 8D: Cells were treated for 24 h as in FIG. 8C, and viability was quantified by MTT assays performed in triplicate on cells of the indicated genotypes. Cell death is expressed as a percentage of the untreated controls.
# Cells were cultured and retrovirally infected as previously described (Shaw et al. (2004), Proc. Natl. Acad. Sci. USA 101:3329-3335). […] Cells were serum-starved in DMEM without serum 14 h post-transfection, then 8 h later the media was replaced with fresh DMEM with 10% FBS or DMEM with 10% FBS and 2 mM AICAR. For the MEF experiments in FIG. 6: cells were plated at 1×10^6 cells/10 cm dish, then the next day the media was replaced with fresh DMEM with 10% FBS or DMEM with 10% FBS and 2 mM AICAR. For the MEF experiments in FIG. 8A,B: 1×10^6 cells of each genotype were plated and the next day serum-starved for 24 h. Cells were either lysed as such or their media replaced with fresh DMEM with 10% FBS, DMEM with 10% FBS and 2 mM AICAR, DMEM with 10% FBS and 20 nM rapamycin, or D-PBS with 10% dialyzed FBS for 90 mins.
smiles,measurement,setting,value
"NC(=O)c1ncn([C@@H]2O[C@H](CO)[C@@H](O)[C@H]2O)c1N [AICAR, 5-aminoimidazole-4-carboxamide 1-β-D-ribofuranoside]",S6K1 activity,"Lkb1-/- MEFs, serum-starved 24 h, 10% serum with 2 mM AICAR for 90 min",failed to down-regulate S6K1 activity
same,hypophosphorylated 4E-BP1 in total cell lysates,"Lkb1-deficient cells, AICAR treatment",near absence of hypophosphorylated 4E-BP1
same,levels of active S6K1,"Lkb1-deficient fibroblasts, 2 mM AICAR for 2 h",remained high
same,growth factor signaling to GSK-3,"MEFs, 2 mM AICAR for 2 h",unaffected
same,S6K1 activity,"wild-type MEFs, 2 mM AICAR for 2 h",inhibited
same,level of hypophosphorylated 4E-BP1,"wild-type MEFs, AICAR treatment",significantly increases
same,4E-BP1 association with the cap complex,"wild-type MEFs, AICAR treatment, 7-methyl GTP sepharose",increased 4E-BP1 association with the cap complex
